Data on ten compounds can be found in patent US20220411381A1, “PYRIMIDINEDIONE DERIVATIVES” (Bayer Aktiengesellschaft, priority 2019, published 2022).

Read-outs that look alike come from different tables or passages of the source.

The target of assay [1] is T1, recombinant human BCAT1 enzyme (Homo sapiens, UniProt P54687).
T1 construct: purchased ATGen (South Korea) ATGP1479
T1 sequence (P54687 1-386): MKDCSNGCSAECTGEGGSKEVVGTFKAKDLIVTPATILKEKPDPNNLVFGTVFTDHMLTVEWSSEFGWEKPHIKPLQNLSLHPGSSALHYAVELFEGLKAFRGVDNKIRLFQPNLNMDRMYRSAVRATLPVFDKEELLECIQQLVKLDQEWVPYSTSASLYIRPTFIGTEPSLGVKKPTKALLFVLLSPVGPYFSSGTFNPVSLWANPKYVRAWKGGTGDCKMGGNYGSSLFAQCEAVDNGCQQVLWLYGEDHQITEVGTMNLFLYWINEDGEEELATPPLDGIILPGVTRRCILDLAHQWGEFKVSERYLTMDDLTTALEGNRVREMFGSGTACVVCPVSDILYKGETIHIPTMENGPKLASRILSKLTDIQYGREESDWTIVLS
Nature of the assay: In vitro assay 1a: BCAT1 biochemical assay (coupled LeuDH/NADH fluorescence readout). As for the experimental part:
(§1) In Vitro Assay 1a and 1b: BCAT1 and BCAT2 Biochemical Assay
(§2) BOAT (Branched chain amino acid transferase) catalyzes transamination of the branched chain amino acid leucine to α-ketoisocaproate (KIC). The BOAT enzymatic reaction was measured in a coupled readout with leucine dehydrogenase (LeuDH) which catalyzes the Nicotinamide adenine dinucleotide (NADH) dependent reduction of KIC to leucine. NADH consumption is measured by fluorescent readout.
(§3) The biochemical reactions were performed at 32° C. in 384-well plates using a reaction volume of 51 μl and the following assay buffer conditions: 50 mM HEPES (2-[4-(2-hydroxyethyl)piperazin-1-yl]ethanesulfonic acid) pH 8.0, 50 mM aqueous solution of ammonium sulfate, 1 mM ethylenediaminetetraacetic acid, 2 mM dithiothreitol, 0.01% bovine serum albumine, 0.005% Brij 35 detergent, 0.5 μM PLP (pyridoxalphosphate), 10 μM NADH, and 50 μM α-ketoglutarate), and 100 μM leucine. […] Test compounds were used in a concentration range between 0.005 and 30 μM. The final DMSO concentration was 2%.
(§4) The reaction was initiated by addition of substrates (Leucine, α-KG, NADH).

Assay [2] addresses T2, recombinant human BCAT2 enzyme (Homo sapiens, UniProt O15382).
T2 construct: purchased ATGen (South Korea) ATGP1523
T2 sequence (O15382 28-392): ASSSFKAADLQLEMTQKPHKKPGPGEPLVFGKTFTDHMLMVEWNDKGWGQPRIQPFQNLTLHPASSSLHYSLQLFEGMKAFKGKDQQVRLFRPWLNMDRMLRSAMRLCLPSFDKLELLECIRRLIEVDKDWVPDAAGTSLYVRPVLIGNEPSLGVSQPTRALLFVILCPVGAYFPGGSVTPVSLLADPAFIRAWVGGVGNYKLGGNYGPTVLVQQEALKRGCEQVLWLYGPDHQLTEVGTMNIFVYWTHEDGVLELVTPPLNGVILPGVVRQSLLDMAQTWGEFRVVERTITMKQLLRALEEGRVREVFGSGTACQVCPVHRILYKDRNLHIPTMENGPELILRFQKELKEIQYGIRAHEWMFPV
In words: In vitro assay 1b: BCAT2 biochemical assay (coupled LeuDH/NADH fluorescence readout). Further: recombinant human BCAT2 0.75 nM. The conditions noted are these: recombinant human BCAT2 […], 32° C., 100 μM leucine, 50 μM α-ketoglutarate, NADH fluorescence over 90 min; read-out: BCAT2 IC50. The procedure:
as §1, §2, §3, §4

A further assay deals with MDA-MB231 cells. In words: In vitro assay 2: BCAT cellular assay, leucine in medium of MDA-MB231 cells. It counts as cell-based. To be noted: 24 hours incubation, leucine level in medium (LeuDH/diaphorase/resazurin readout), read-out: MDAMB-231 IC50. The procedure: In Vitro Assay 2: BCAT Cellular Assay
Levels of leucine were measured in medium of different tumor cell lines. The enzyme BOAT (Branched chain amino acid transferase) catalyzes the consumption of leucine.
Cells (U87-MG and MDA-MB231 from ATCC) were grown in Dulbecco's Modified Eagle Medium (DMEM) containing 10% fetal calf serum. They were harvested by trypsin and seeded into 96-well plates. Cells were incubated overnight at 37° C. in an atmosphere containing 5% carbon dioxide. The next day test compounds were added to each cell well. The final concentration of dimethylsulfoxide (DMSO) was 0.1% and DMSO controls were included. The plates were then placed in an incubator for 24 hours.
Leucine was measured in an enzymatic readout with leucine dehydrogenase (LeuDH) and diaphorase. Medium is deproteinized with perchloric acid. 30 μl of 1 M aqueous perchloric acid was added to each well and the plates were centrifuged.
Background: Alamar Blue is a resazurin reagent that responds to reducing activity.

Where [3] appears, read: recombinant human BCAT1 […], 32° C., 100 μM leucine, 50 μM α-ketoglutarate, NADH fluorescence over 90 min, read-out: BCAT1 IC50.

For orientation: IC50 means the midpoint of a concentration-inhibition curve. For `COc1cc(C#N)c(Oc2ccccc2C)cc1-n1c(=O)cc(Br)[nH]c1=O` (racemic) [Example 19, 4-[4-Bromo-2,6-dioxo-3,6-dihydropyrimidin-1(2H)-yl]-5-methoxy-2-(2-methylphenoxy)benzonitrile (rac)], the IC50 in assay [1] (setting [3]) was 2e-07 M; in assay [2], 3500 nM; in the assay with MDA-MB231 cells (Homo sapiens, MDA-MB-231, 24 h) it was > 30 µM.
In the case of `COc1cc(C#N)c(Oc2ccccc2C)cc1-n1c(=O)cc(C(F)(F)F)[nH]c1=O` (racemic) [Example 4, 4-[2,6-Dioxo-4-(trifluoromethyl)-3,6-dihydropyrimidin-1(2H)-yl]-5-methoxy-2-(2-methylphenoxy)benzonitrile (rac)], the 50% inhibitory concentration (IC50) was 1.62e-07 M in assay [1] (BCAT1 IC50 [M]) and > 30 µM in the assay on MDA-MB231 cells (Homo sapiens, MDA-MB-231, 24 h).
For the compound `COc1cc(C#N)c(Oc2ccccc2C)cc1-n1c(=O)cc(C2CC2)[nH]c1=O` (racemic) [Example 23, 4-(4-Cyclopropyl-2,6-dioxo-3,6-dihydropyrimidin-1(2H)-yl)-5-methoxy-2-(2-methylphenoxy)benzonitrile (rac)], the 50% inhibitory concentration (IC50) in assay [1] (setting [3]) is 1.8e-07 M; in the assay on MDA-MB231 cells, > 30 µM; in the assay with MDA-MB231 cells (Homo sapiens, MDA-MB-231, 24 h), 30 µM.
Consider `COc1cc(C#N)c(Oc2ccccc2C)cc1-n1c(=O)cc(C(F)(F)F)[nH]c1=O` (single isomer, unassigned) [Example 6, 4-[2,6-Dioxo-4-(trifluoromethyl)-3,6-dihydropyrimidin-1 (2H)-yl]-5-methoxy-2-(2-methylphenoxy)benzonitrile (atrop 2)], for which the IC50 was 6.25e-07 M in assay [1] (BCAT1 IC50 [M]) and > 30 µM in the assay on MDA-MB231 cells.
Turning to `N#Cc1cc(F)c(-n2c(=O)cc(C(F)(F)F)[nH]c2=O)cc1Oc1c(F)cccc1F` [Example 63, 2-(2,6-Difluorophenoxy)-4-[2,6-dioxo-4-(trifluoromethyl)-3,6-dihydropyrimidin-1 (2H)-yl]-5-fluorobenzonitrile], the IC50 in the assay on MDA-MB231 cells (Homo sapiens, MDA-MB-231, 24 h) is > 30 µM.
Regarding `COc1cc(C#N)c(Oc2ccccc2C)cc1-n1c(=O)cc(S(=O)(=O)c2ccccc2)[nH]c1=O` (racemic) [Example 76, 4-[4-(Benzenesulfonyl)-2,6-dioxo-3,6-dihydropyrimidin-1(2H)-yl]-5-methoxy-2-(2-methylphenoxy)benzonitrile (rac)], the IC50 in assay [2] is 452 nM; in the assay with MDA-MB231 cells, 20 µM; in the assay with MDA-MB231 cells (Homo sapiens, MDA-MB-231, 24 h) it was > 30 µM.
With `COc1cc(C#N)c(Oc2ccccc2C)cc1-n1c(=O)cc(C(F)(F)c2ccccc2)[nH]c1=O` (racemic) [Example 24, 4-{4-[Difluoro(phenyl)methyl]-2,6-dioxo-3,6-dihydropyrimidin-1(2H)-yl}-5-methoxy-2-(2-methylphenoxy)benzonitrile (rac)], the 50% inhibitory concentration (IC50) in assay [1] (setting [3]) turned out to be 1.45e-07 M; in assay [2] it was 600 nM.
The corresponding values for `COc1cc(C#N)c(Oc2ccccc2C)cc1-n1c(=O)cc(-c2ccccc2)[nH]c1=O` (single isomer, unassigned) [Example 44, 4-(2,6-Dioxo-4-phenyl-3,6-dihydropyrimidin-1(2H)-yl)-5-methoxy-2-(2-methylphenoxy)benzonitrile (atrop 2)] are 5.5e-07 M and 6500 nM.
For `Cc1ccccc1Oc1cc(-n2c(=O)cc(C(F)(F)Cl)[nH]c2=O)c(Cl)cc1C#N` (racemic) [Example 26, 5-Chloro-4-{4-[chloro(difluoro)methyl]-2,6-dioxo-3,6-dihydropyrimidin-1(2H)-yl}-2-(2-methylphenoxy)benzonitrile (rac)], the results for the IC50 in assay [1] (setting [3]) and in assay [2] were 2.7e-07 M and 2170 nM, respectively.
As to `Cc1ccccc1Oc1cc(-n2c(=O)cc(S(=O)(=O)c3ccccc3)[nH]c2=O)c(F)cc1C#N` [Example 74, 4-[4-(Benzenesulfonyl)-2,6-dioxo-3,6-dihydropyrimidin-1(2H)-yl]-5-fluoro-2-(2-methylphenoxy)benzonitrile], the IC50 was 30 µM in the assay with MDA-MB231 cells and > 30 µM with MDA-MB231 cells (Homo sapiens, MDA-MB-231, 24 h).
